The target in this assay is T1, chimeric α7-5HT3 ion channel (UniProt P23979+P36544, M226I/T225I).
T1 construct: expressed in transfected cells
Description: Cell-based FLIPR assay of agonist activity on the chimeric α7-5HT3 receptor (Calcium Green fluorescence, intracellular calcium). The settings on record: SH-EP1 cells expressing chimeric α7-5HT3 ion channel. The source says: The cDNA encoding the N-terminal 201 amino acids from the human α7 nAChR that contain the ligand binding domain of the ion channel was fused to the cDNA encoding the pore forming region of the mouse 5HT3 receptor as described by Eisele J L, et al., Chimacric nicotinic-serotonergic receptor combines distinct ligand binding and channel specificities, Nature (1993), December 2;366(6454):479–83, and modified by Groppi, et al., WO 00/73431. The chimeric α7–5HT3 ion channel was inserted into pGS 175 and pGS 179 which contain the resistance genes for G-418 and hygromycin B, respectively. […]
To assay the activity of the α7–5HT3 ion channel, cells expressing the channel were plated into each well of either a 96 or 384 well dish (Corning #3614) and grown to confluence prior to assay. […] The activity of compounds on the chimeric α7–5HT3 ion channel was analyzed on FLIPR. […] Fluorescent emission was measured above 525 nanometers with an appropriate F-stop to maintain a maximal signal to noise ratio. Agonist activity of each compound was measured by directly adding the compound to cells expressing the chimeric α7-5HT3 ion channel and measuring the resulting increase in intracellular calcium that is caused by the agonist-induced activation of the chimeric ion channel. […]

T1 sequence (P36544+P23979 fused P36544:T225I/P36544:M226I): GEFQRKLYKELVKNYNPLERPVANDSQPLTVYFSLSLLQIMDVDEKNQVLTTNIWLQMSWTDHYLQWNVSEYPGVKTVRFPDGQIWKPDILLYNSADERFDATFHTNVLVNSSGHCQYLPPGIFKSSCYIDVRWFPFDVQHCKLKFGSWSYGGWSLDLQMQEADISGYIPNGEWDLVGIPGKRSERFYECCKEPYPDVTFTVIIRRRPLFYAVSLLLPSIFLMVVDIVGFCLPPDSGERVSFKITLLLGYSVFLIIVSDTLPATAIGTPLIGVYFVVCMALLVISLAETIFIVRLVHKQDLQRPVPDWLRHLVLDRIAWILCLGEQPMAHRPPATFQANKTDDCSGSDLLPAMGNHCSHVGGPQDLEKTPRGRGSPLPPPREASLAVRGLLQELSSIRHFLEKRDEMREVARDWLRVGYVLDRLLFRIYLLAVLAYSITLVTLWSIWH

Consider `Cl.O=C(N[C@H]1CN2CCC1CC2)c1ccc2cccc(O)c2n1` [Example 8, N-[(3R)-1-azabicyclo[2.2.2]oct-3-yl]-8-hydroxyquinoline-2-carboxamide hydrochloride], for which the “EC50 (effective concentration needed to cause a 50% maximal increase in intracellular calcium)” value was “inactive”.

Source of the values: patent US7001900B2, “Azabicyclic compounds for the treatment of disease” (Pfizer Inc., priority 2002, dated 2006).
